A word on the IC50: it is the concentration that inhibits the measured activity by half.

Where two headings read alike, the source gives them in different places.

We go through 20 compounds from patent US12358886B2, “Heterocyclic compounds for use in the treatment of cancer” (Artios Pharma Limited, priority 2019, dated 2025).

This assay addresses Polθ protein (amino acids 2-2590) (Homo sapiens, UniProt O75417). Put plainly: Polθ full length enzyme potency assay (PicoGreen). The settings on record: full length N-His, C-term FLAG tagged Polθ, PicoGreen fluorescence, 12 point concentration response.

Chain of Polθ protein (amino acids 2-2590) (O75417 2-2590): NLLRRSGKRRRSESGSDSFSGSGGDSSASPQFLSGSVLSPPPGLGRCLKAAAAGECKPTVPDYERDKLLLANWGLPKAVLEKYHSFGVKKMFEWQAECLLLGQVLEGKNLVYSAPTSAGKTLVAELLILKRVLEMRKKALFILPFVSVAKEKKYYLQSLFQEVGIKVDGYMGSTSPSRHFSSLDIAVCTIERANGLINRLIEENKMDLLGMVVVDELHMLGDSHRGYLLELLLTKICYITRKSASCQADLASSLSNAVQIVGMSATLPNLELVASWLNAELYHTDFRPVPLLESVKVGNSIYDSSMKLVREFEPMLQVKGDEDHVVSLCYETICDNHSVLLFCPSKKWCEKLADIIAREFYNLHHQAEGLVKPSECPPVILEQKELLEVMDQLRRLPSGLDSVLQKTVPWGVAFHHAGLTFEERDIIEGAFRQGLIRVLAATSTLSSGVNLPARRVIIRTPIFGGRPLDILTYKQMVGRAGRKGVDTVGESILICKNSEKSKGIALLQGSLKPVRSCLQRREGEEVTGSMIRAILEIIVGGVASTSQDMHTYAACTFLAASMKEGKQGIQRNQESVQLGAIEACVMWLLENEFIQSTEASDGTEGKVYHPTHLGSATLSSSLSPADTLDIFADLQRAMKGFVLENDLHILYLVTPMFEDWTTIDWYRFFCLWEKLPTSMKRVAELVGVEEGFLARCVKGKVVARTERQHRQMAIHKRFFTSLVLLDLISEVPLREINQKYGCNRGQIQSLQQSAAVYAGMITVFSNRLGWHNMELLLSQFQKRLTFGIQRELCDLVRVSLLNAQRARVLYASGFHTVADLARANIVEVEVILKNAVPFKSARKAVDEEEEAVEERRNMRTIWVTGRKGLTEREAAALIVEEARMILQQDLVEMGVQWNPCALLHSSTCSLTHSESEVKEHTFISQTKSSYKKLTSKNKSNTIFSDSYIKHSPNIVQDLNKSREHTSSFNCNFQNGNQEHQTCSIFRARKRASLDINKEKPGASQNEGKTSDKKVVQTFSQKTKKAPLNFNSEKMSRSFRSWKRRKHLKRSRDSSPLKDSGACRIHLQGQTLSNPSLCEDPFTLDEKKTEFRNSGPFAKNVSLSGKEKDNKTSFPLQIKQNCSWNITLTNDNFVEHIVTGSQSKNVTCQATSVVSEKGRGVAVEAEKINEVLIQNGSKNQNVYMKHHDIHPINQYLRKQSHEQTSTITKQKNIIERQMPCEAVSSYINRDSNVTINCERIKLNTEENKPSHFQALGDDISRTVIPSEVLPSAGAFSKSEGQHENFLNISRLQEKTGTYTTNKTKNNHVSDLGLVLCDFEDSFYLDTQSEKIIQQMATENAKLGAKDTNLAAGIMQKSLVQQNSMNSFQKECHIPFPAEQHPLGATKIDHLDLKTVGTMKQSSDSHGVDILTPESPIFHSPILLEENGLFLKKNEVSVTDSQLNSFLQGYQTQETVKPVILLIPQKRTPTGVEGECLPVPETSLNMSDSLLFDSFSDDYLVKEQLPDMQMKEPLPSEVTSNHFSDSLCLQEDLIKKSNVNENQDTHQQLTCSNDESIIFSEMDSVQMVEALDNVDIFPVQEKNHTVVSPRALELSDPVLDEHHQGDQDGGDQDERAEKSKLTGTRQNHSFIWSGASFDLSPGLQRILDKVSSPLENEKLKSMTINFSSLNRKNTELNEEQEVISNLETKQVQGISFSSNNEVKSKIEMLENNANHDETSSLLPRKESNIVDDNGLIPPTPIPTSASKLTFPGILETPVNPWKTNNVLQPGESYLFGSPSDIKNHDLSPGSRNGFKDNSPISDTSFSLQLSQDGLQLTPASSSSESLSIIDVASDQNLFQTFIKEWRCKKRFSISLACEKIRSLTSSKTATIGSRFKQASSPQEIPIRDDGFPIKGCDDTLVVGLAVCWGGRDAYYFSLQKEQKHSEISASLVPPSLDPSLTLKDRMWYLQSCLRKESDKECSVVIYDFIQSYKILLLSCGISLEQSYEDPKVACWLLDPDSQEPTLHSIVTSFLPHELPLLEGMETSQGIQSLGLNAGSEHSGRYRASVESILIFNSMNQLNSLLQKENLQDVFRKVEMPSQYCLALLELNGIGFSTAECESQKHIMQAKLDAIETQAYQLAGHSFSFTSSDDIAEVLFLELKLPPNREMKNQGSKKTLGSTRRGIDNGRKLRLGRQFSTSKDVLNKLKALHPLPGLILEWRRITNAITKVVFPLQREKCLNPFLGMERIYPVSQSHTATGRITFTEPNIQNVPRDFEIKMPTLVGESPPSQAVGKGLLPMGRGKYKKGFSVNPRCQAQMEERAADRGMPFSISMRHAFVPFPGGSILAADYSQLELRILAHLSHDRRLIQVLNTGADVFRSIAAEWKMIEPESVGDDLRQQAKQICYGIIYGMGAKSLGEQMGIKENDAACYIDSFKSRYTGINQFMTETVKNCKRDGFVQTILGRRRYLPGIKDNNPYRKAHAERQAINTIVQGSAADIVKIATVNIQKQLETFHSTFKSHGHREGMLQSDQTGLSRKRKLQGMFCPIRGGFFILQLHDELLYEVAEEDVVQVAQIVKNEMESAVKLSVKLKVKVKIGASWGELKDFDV
Method: Polθ Full Length Enzyme Potency Assay
PicoGreen assay was used to measure the ability of compounds to inhibit the activity of Polθ in vitro. […] DMSO concentration was maintained at 1% by back filling with DMSO solution. […] This was dispensed into each well of the compound plate using a VIAFLO 16 channel manual pipette (Integra) and pre-incubated at rt for 30 min. 3 μL of 2× working solution of dNTPs (40 μM) (dATP, dCTP, dGTP, dTTP; Sigma D6500, D4635, D4010, T0251) diluted in assay buffer was then added and the reaction incubated for 60 min at rt. The reaction was stopped by addition of 10 mM EDTA, 25 mM Tris pH 7.5 and 1:200 dilution of PicoGreen dye (Invitrogen P7581).

Turning to `Cc1cc(C(F)(F)F)cc(N2C(=O)N(CCN3CCC(C#N)CC3)C[C@H]2C(=O)N(C)c2ccc(F)c(Cl)c2F)n1` [Example 211, (S)-N-(3-Chloro-2,4-difluorophenyl)-1-(2-(4-cyanopiperidin-1-yl)ethyl)-N-methyl-3-(6-methyl-4-(trifluoromethyl)pyridin-2-yl)-2-oxoimidazolidine-4-carboxamide], the 50% inhibitory concentration (IC50) (Polθ IC50 (nM)) was 5 nM.

`Cc1cc(C(F)(F)F)c(C#N)c(N2C[C@@H](O)C[C@H]2C(=O)N(C)c2ccccc2)n1` [Example 8, (2S,4S)-1-(3-Cyano-6-methyl-4-(trifluoromethyl)pyridin-2-yl)-4-hydroxy-N-methyl-N-phenylpyrrolidine-2-carboxamide] gave an IC50 (Polθ IC50 (nM)) of 180 nM.

Regarding `Cc1cc(C(F)(F)F)cc(N2C(=O)OC[C@H]2C(=O)N(C)c2cc(Cl)c(F)cc2F)n1` [Example 98, (S)-N-(5-Chloro-2,4-difluorophenyl)-N-methyl-3-(6-methyl-4-(trifluoromethyl)pyridin-2-yl)-2-oxooxazolidine-4-carboxamide], the half-inhibitory concentration (IC50) (read-out: Polθ IC50) is 32 nM.

`CCN(C)c1cc(C(F)(F)F)c(C#N)c(N2C[C@@H](O)C[C@H]2C(=O)N(C)c2cccc(C)c2)n1` [Example 31, (2S,4S)-1-(3-Cyano-6-(ethyl(methyl)amino)-4-(trifluoromethyl)pyridin-2-yl)-4-hydroxy-N-methyl-N-(m-tolyl)pyrrolidine-2-carboxamide] displayed an IC50 (Polθ IC50 (nM)) of 395 nM.

`Cc1cc(C(F)(F)F)cc(N2C(=O)N(CC3(CO)COC3)C[C@H]2C(=O)N(C)c2ccc(F)c(Cl)c2F)n1` [Example 186, (S)-N-(3-Chloro-2,4-difluoro-phenyl)-1-((3-(hydroxymethyl)-oxetan-3-yl)methyl)-N-methyl-3-(6-methyl-4-(trifluoromethyl)-pyridin-2-yl)-2-oxoimidazolidine-4-carboxamide] had a 50% inhibitory concentration (IC50) (Polθ IC50 (nM)) of 9 nM.

With `Cc1cc(C(F)(F)F)cc(N2C(=O)N(CCN3CCCC3CO)C[C@H]2C(=O)N(C)c2ccc(F)c(Cl)c2)n1` (single isomer, unassigned; isomer 1) [Example 198], the half-inhibitory concentration (IC50) (Polθ IC50 (nM)) turned out to be 28 nM.

In the case of `Cc1cc(C(F)(F)F)c(C#N)c(N2C[C@@H](O)C[C@H]2C(=O)N(C)c2cc(F)c(F)cc2F)n1` [Example 20, (2S,4S)-1-(3-Cyano-6-methyl-4-(trifluoromethyl)pyridin-2-yl)-4-hydroxy-N-methyl-N-(2,4,5-trifluorophenyl)pyrrolidine-2-carboxamide], the 50% inhibitory concentration (IC50) (Polθ IC50 (nM)) is 67 nM.

With `Cc1cc(C(F)(F)F)cc(N2C(=O)N(CCN3CCOCC3)C[C@H]2C(=O)N(C)c2ccc(F)c(Cl)c2F)n1` [Example 195, (S)-N-(3-Chloro-2,4difluorophenyl)-N-methyl-3-(6-methyl-4-(trifluoromethyl)pyridin-2-yl)-1-(2-morpholinoethyl)-2-oxoimidazolidine-4-carboxamide], the IC50 (Polθ IC50 (nM)) worked out at 4 nM.

With `COc1cc(N(C)C(=O)[C@@H]2C[C@H](O)CN2c2nc(C)cc(C(F)(F)F)c2C#N)ccc1F` [Example 16, (2S,4S)-1-(3-Cyano-6-methyl-4-(trifluoromethyl)pyridin-2-yl)-N-(4-fluoro-3-methoxyphenyl)-4-hydroxy-N-methylpyrrolidine-2-carboxamide], for the setting “Polθ IC50 (nM)”, the IC50 turned out to be 274 nM.

The compound `CCN(C(=O)[C@@H]1C[C@H](N(C)[C@@H]2CCC[C@H]2O)CN1c1cc(C(F)(F)F)cc(C)n1)c1ccc(F)c(F)c1` [Example 141, (2S,4S)-N-(3,4-Difluorophenyl)-N-ethyl-4-(((1R,2R)-2-hydroxycyclopentyl)(methyl)amino)-1-(6-methyl-4-(trifluoromethyl)pyridin-2-yl)pyrrolidine-2-carboxamide] showed an IC50 (Polθ IC50 (nM)) of 56 nM.

Turning to `CCN(C(=O)[C@@H]1C[C@H](N2CCO[C@@H](CO)C2)CN1c1nc(C)cc(C(F)(F)F)c1C#N)c1ccc(F)c(Cl)c1` [Example 155, (2S,4S)-N-(3-Chloro-4-fluorophenyl)-1-(3-cyano-6-methyl-4-(trifluoromethyl)pyridin-2-yl)-N-ethyl-4-((R)-2-(hydroxymethyl)morpholino)pyrrolidine-2-carboxamide], the half-maximal inhibitory concentration (IC50) (Polθ IC50 (nM)) was found to be 15 nM.

`CCN(C(=O)[C@@H]1C[C@H](N2CCOC(CO)C2)CN1c1cc(C(F)(F)F)cc(C)n1)c1ccc(F)c(F)c1` (stereo partly drawn) [Example 128, (2S,4S)-N-(3,4-Difluorophenyl)-N-ethyl-4-(2-(hydroxymethyl)morpholino)-1-(6-methyl-4-(trifluoromethyl)pyridin-2-yl)pyrrolidine-2-carboxamide] yielded an IC50 (Polθ IC50 (nM)) of 42 nM.

For the compound `CCN(C(=O)[C@@H]1C[C@H](N2CC(O)C2)CN1c1cc(C(F)(F)F)cc(C)n1)c1ccc(F)c(F)c1` [Example 130, (2S,4S)-N-(3,4-Difluorophenyl)-N-ethyl-4-(3-hydroxyazetidin-1-yl)-1-(6-methyl-4-(trifluoromethyl)pyridin-2-yl)pyrrolidine-2-carboxamide], for the setting “Polθ IC50 (nM)”, the half-maximal inhibitory concentration (IC50) was determined as 100 nM.

Under “Polθ IC50 (nM)”, `CCN(C(=O)[C@@H]1C[C@H](N2CCOC[C@H]2CO)CN1c1nc(C)cc(C(F)(F)F)c1C#N)c1ccc(F)c(Cl)c1` [Example 153, (2S,4S)-N-(3-Chloro-4-fluorophenyl)-1-(3-cyano-6-methyl-4-(trifluoromethyl)pyridin-2-yl)-N-ethyl-4-((R)-3-(hydroxymethyl)morpholino)pyrrolidine-2-carboxamide] displayed an IC50 of 104 nM.

Consider `CCN(C(=O)[C@@H]1C[C@H](N(C)C2COC2)CN1c1cc(C(F)(F)F)cc(C)n1)c1ccc(F)c(F)c1` [Example 146, (2S,4S)-N-(3,4-Difluorophenyl)-N-ethyl-4-(methyl(oxetan-3-yl)amino)-1-(6-methyl-4-(trifluoromethyl)pyridin-2-yl)pyrrolidine-2-carboxamide], for which the midpoint of inhibition (Polθ IC50 (nM)), the IC50, lay at 163 nM.

For the setting “Polθ IC50 (nM)”, `Cc1cc(C(F)(F)F)cc(N2C(=O)NC[C@H]2C(=O)N(c2ccc(F)c(Cl)c2F)C2CC2)n1` [Example 161, (S)—N-(3-Chloro-2,4-difluorophenyl)-N-cyclopropyl-3-(6-methyl-4-(trifluoromethyl)-pyridin-2-yl)-2-oxoimidazolidine-4-carboxamide] yielded a 50% inhibitory concentration (IC50) of 12 nM.

`CCN(C(=O)[C@@H]1C[C@H](N2CCOC(CO)C2)CN1c1nc(C)cc(C(F)(F)F)c1C#N)c1ccc(Cl)c(Cl)c1` (stereo partly drawn) [Example 148, (2S,4S)-1-(3-Cyano-6-methyl-4-(trifluoromethyl)pyridin-2-yl)-N-(3,4-dichlorophenyl)-N-ethyl-4-(2-(hydroxymethyl)-morpholino)pyrrolidine-2-carboxamide] came in with a half-inhibitory concentration (IC50) (Polθ IC50 (nM)) of 6 nM.

With `Cc1cc(C)c(C#N)c(N2C[C@@H](O)C[C@H]2C(=O)N(C)c2ccc(F)c(F)c2)n1` [Example 4, (2S,4S)-1-(3-Cyano-4,6-dimethylpyridin-2-yl)-N-(3,4-difluorophenyl)-4-hydroxy-N-methylpyrrolidine-2-carboxamide], under “Polθ IC50 (nM)”, the 50% inhibitory concentration (IC50) was found to be 288 nM.

Where the note is “Polθ IC50 (nM)”, `Cc1cc(C(F)(F)F)c(C#N)c(N2C[C@@H](O)C[C@H]2C(=O)N(C)c2ccc(F)c(C)c2)n1` [Example 6, (2S,4S)-1-(3-Cyano-6-methyl-4-(trifluoromethyl)pyridin-2-yl)-N-(4-fluoro-3-methylphenyl)-4-hydroxy-N-methylpyrrolidine-2-carboxamide] displayed a half-maximal inhibitory concentration (IC50) of 11 nM.

Consider `Cc1cc(C(F)(F)F)cc(N2C(=O)N(CC(O)CO)C[C@H]2C(=O)N(C)c2ccc(F)c(Cl)c2F)n1` (stereo partly drawn) [Example 226, (4S)—N-(3-Chloro-2,4-difluorophenyl)-1-(2,3-dihydroxypropyl)-N-methyl-3-(6-methyl-4-(trifluoromethyl)pyridin-2-yl)-2-oxoimidazolidine-4-carboxamide], for which the half-maximal inhibitory concentration (IC50) (Polθ IC50 (nM)) was determined as 19 nM.
